# Source: ChEMBL document CHEMBL1201862, “PubChem BioAssay data set” (2004)
#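 Cultured in 96-well plates, cells were exposed to test compound for 48 hours across five concentrations. At the GI50, growth is halved.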 Activity calls are given as the source filed them. Rule as the data show it: active = GI50 up to about 1.1 µM and inactive = higher.
# Columns and labels:
# Assay in all cases: growth of human tumour cells (NCI), 48 h
# [1] = system: 786-0
# [2] = system: A498
# [3] = system: A549
# [4] = system: ACHN
# [5] = system: BT-549
# [6] = system: CAKI-1
# [7] = system: CCRF-CEM
# [8] = system: COLO 205
# [9] = system: DLD-1
# [10] = system: DMS-114
# [11] = system: DMS-273
# [12] = system: DU-145
# [13] = system: EKVX
# [14] = system: HCC 2998
# [15] = system: HCT-116
# [16] = system: HCT-15
# [17] = system: HL-60
# [18] = system: HOP-18
# [19] = system: HOP-62
# [20] = system: HOP-92
# [21] = system: HT-29
# [22] = system: Hs-578T
# [23] = system: IGROV-1
# [24] = system: K562
# [25] = system: KM-20L2
# [26] = system: KM12
# [27] = system: LOX IMVI
# [28] = system: M14
# [29] = system: M19-MEL
# [30] = system: MCF7
# [31] = system: MDA-MB-231
# [32] = system: MDA-MB-435
# [33] = system: MDA-N
# [34] = system: MOLT-4
# [35] = system: Malme-3M
# [36] = system: NCI-H226
# [37] = system: NCI-H23
# [38] = system: NCI-H460
# [39] = system: NCI-H522
# [40] = system: NCI/ADR-RES
# [41] = system: OVCAR-3
# [42] = system: OVCAR-4
# [43] = system: OVCAR-5
# [44] = system: OVCAR-8
# [45] = system: PC-3
# [46] = system: RPMI-8226
# [47] = system: RXF 393
# [48] = system: SF-268
# [49] = system: SF-295
# [50] = system: SF-539
# [51] = system: SK-MEL-28
# [52] = system: SK-MEL-2
# [53] = system: SK-MEL-5
# [54] = system: SK-OV-3
# [55] = system: SN12C
# [56] = system: SNB-19
# [57] = system: SNB-75
# [58] = system: SNB-78
# [59] = system: SR
# [60] = system: SW-620
# [61] = system: T47D
# [62] = system: TK-10
# [63] = system: U-251
# [64] = system: UACC-257
# [65] = system: UACC-62
# [66] = system: UO-31
# [67] = system: XF498
# [68] = system: LXFL 529
compound,measurement,setting,value
O=c1[nH]c(=O)n([C@H]2CCCO2)cc1F,GI50,[1],984 µM (inactive)
same,GI50,[2],501 µM (inactive)
same,GI50,[3],446 µM (inactive)
same,GI50,[4],977 µM (inactive)
same,GI50,[5],4000 µM (inactive)
same,GI50,[6],828 µM (inactive)
same,GI50,[7],982 µM (inactive)
same,GI50,[8],673 µM (inactive)
same,GI50,[9],615 µM (inactive)
same,GI50,[10],673 µM (inactive)
same,GI50,[11],561 µM (inactive)
same,GI50,[12],748 µM (inactive)
same,GI50,[13],393 µM (inactive)
same,GI50,[14],89.7 µM (inactive)
same,GI50,[15],406 µM (inactive)
same,GI50,[16],678 µM
same,GI50,[17],644 µM (inactive)
same,GI50,[18],692 µM (inactive)
same,GI50,[19],547 µM (inactive)
same,GI50,[20],> 3120 µM (inactive)
same,GI50,[21],649 µM (inactive)
same,GI50,[22],3230 µM (inactive)
same,GI50,[23],975 µM (inactive)
same,GI50,[24],968 µM (inactive)
same,GI50,[25],824 µM (inactive)
same,GI50,[26],813 µM (inactive)
same,GI50,[27],685 µM (inactive)
same,GI50,[28],740 µM (inactive)
same,GI50,[29],545 µM (inactive)
same,GI50,[30],467 µM (inactive)
same,GI50,[31],> 2720 µM (inactive)
same,GI50,[32],615 µM (inactive)
same,GI50,[33],1200 µM (inactive)
same,GI50,[34],830 µM (inactive)
same,GI50,[35],493 µM (inactive)
same,GI50,[36],625 µM (inactive)
same,GI50,[37],759 µM (inactive)
same,GI50,[38],146 µM (inactive)
same,GI50,[39],769 µM (inactive)
same,GI50,[40],923 µM (inactive)
same,GI50,[41],684 µM (inactive)
same,GI50,[42],2610 µM (inactive)
same,GI50,[43],953 µM (inactive)
same,GI50,[44],655 µM (inactive)
same,GI50,[45],2510 µM (inactive)
same,GI50,[46],385 µM (inactive)
same,GI50,[47],769 µM (inactive)
same,GI50,[48],986 µM (inactive)
same,GI50,[49],918 µM (inactive)
same,GI50,[50],262 µM (inactive)
same,GI50,[51],830 µM (inactive)
same,GI50,[52],719 µM (inactive)
same,GI50,[53],845 µM (inactive)
same,GI50,[54],681 µM (inactive)
same,GI50,[55],838 µM (inactive)
same,GI50,[56],3920 µM (inactive)
same,GI50,[57],560 µM (inactive)
same,GI50,[58],> 1000 µM (inactive)
same,GI50,[59],337 µM (inactive)
same,GI50,[60],887 µM (inactive)
same,GI50,[61],> 465 µM (inactive)
same,GI50,[62],764 µM (inactive)
same,GI50,[63],957 µM (inactive)
same,GI50,[64],951 µM (inactive)
same,GI50,[65],569 µM (inactive)
same,GI50,[66],869 µM (inactive)
same,GI50,[67],762 µM (inactive)
Cc1ccccc1NC(=O)C(=O)C(C#N)c1ccccc1C (configuration not stated),GI50,[1],> 100 µM (inactive)
same,GI50,[2],> 100 µM (inactive)
same,GI50,[3],> 100 µM (inactive)
same,GI50,[4],> 100 µM (inactive)
same,GI50,[6],> 100 µM (inactive)
same,GI50,[7],30.4 µM (inactive)
same,GI50,[8],46.8 µM (inactive)
same,GI50,[9],> 100 µM (inactive)
same,GI50,[10],> 100 µM (inactive)
same,GI50,[11],> 100 µM (inactive)
same,GI50,[13],> 100 µM (inactive)
same,GI50,[14],> 100 µM (inactive)
same,GI50,[15],> 100 µM (inactive)
same,GI50,[16],> 100 µM
same,GI50,[17],53.3 µM (inactive)
same,GI50,[18],> 100 µM (inactive)
same,GI50,[19],> 100 µM (inactive)
same,GI50,[20],> 100 µM (inactive)
same,GI50,[21],> 100 µM (inactive)
same,GI50,[23],> 100 µM (inactive)
same,GI50,[24],21.9 µM (inactive)
same,GI50,[25],> 100 µM (inactive)
same,GI50,[26],> 100 µM (inactive)
same,GI50,[27],22.5 µM (inactive)
same,GI50,[68],> 100 µM (inactive)
same,GI50,[28],> 100 µM (inactive)
same,GI50,[34],> 100 µM (inactive)
same,GI50,[35],> 100 µM (inactive)
same,GI50,[36],> 100 µM (inactive)
same,GI50,[37],> 100 µM (inactive)
same,GI50,[38],38.2 µM (inactive)
same,GI50,[39],59.3 µM (inactive)
same,GI50,[41],> 100 µM (inactive)
same,GI50,[43],> 100 µM (inactive)
same,GI50,[44],> 100 µM (inactive)
same,GI50,[46],> 100 µM (inactive)
same,GI50,[47],> 100 µM (inactive)
same,GI50,[48],> 100 µM (inactive)
same,GI50,[49],> 100 µM (inactive)
same,GI50,[50],> 100 µM (inactive)
same,GI50,[51],> 100 µM (inactive)
same,GI50,[52],> 100 µM (inactive)
same,GI50,[53],> 100 µM (inactive)
same,GI50,[54],> 100 µM (inactive)
same,GI50,[55],> 100 µM (inactive)
same,GI50,[56],> 100 µM (inactive)
same,GI50,[57],> 100 µM (inactive)
same,GI50,[58],> 100 µM (inactive)
same,GI50,[59],> 100 µM (inactive)
same,GI50,[60],19.5 µM (inactive)
same,GI50,[62],> 100 µM (inactive)
same,GI50,[63],> 100 µM (inactive)
same,GI50,[64],> 100 µM (inactive)
same,GI50,[65],> 100 µM (inactive)
same,GI50,[66],> 100 µM (inactive)
same,GI50,[67],34 µM (inactive)
CCSc1nnc(-c2ccccc2)nc1Cc1ccc(OC)cc1,GI50,[1],> 100 µM (inactive)
same,GI50,[2],77.6 µM (inactive)
same,GI50,[3],42.2 µM (inactive)
same,GI50,[4],77.8 µM (inactive)
same,GI50,[7],69 µM (inactive)
same,GI50,[8],86.9 µM (inactive)
same,GI50,[9],> 100 µM (inactive)
same,GI50,[11],71.9 µM (inactive)
same,GI50,[13],> 100 µM (inactive)
same,GI50,[14],> 100 µM (inactive)
same,GI50,[15],38.5 µM (inactive)
same,GI50,[16],82 µM
same,GI50,[17],40.5 µM (inactive)
same,GI50,[18],> 100 µM (inactive)
same,GI50,[19],> 100 µM (inactive)
same,GI50,[20],> 100 µM (inactive)
same,GI50,[21],> 100 µM (inactive)
same,GI50,[23],> 100 µM (inactive)
same,GI50,[24],71.3 µM (inactive)
same,GI50,[25],> 100 µM (inactive)
same,GI50,[26],> 100 µM (inactive)
same,GI50,[27],47.9 µM (inactive)
same,GI50,[68],50.8 µM (inactive)
same,GI50,[28],> 100 µM (inactive)
same,GI50,[29],> 100 µM (inactive)
same,GI50,[34],49.2 µM (inactive)
same,GI50,[35],> 100 µM (inactive)
same,GI50,[36],> 100 µM (inactive)
same,GI50,[37],63.4 µM (inactive)
same,GI50,[38],46.5 µM (inactive)
same,GI50,[39],43.3 µM (inactive)
same,GI50,[41],88.9 µM (inactive)
same,GI50,[42],> 100 µM (inactive)
same,GI50,[44],> 100 µM (inactive)
same,GI50,[46],81.8 µM (inactive)
same,GI50,[47],> 100 µM (inactive)
same,GI50,[48],> 100 µM (inactive)
same,GI50,[49],52.5 µM (inactive)
same,GI50,[50],> 100 µM (inactive)
same,GI50,[51],> 100 µM (inactive)
same,GI50,[52],87.1 µM (inactive)
same,GI50,[54],67.3 µM (inactive)
same,GI50,[55],> 100 µM (inactive)
same,GI50,[56],> 100 µM (inactive)
same,GI50,[57],65.8 µM (inactive)
same,GI50,[58],78 µM (inactive)
same,GI50,[59],42.8 µM (inactive)
same,GI50,[60],> 100 µM (inactive)
same,GI50,[62],> 100 µM (inactive)
same,GI50,[63],79.6 µM (inactive)
same,GI50,[64],56.5 µM (inactive)
same,GI50,[65],> 100 µM (inactive)
same,GI50,[66],> 100 µM (inactive)
same,GI50,[67],62.7 µM (inactive)
